Laboratory results taken from patent publication US20090318492A1, “INDOLE COMPOUNDS HAVING C4-ACIDIC SUBSTITUENTS AND USE THEREOF AS PHOSPHOLIPASE-A2 INHIBITORS” (priority 2005, published 2009).
Where two headings read alike, the source gives them in different places.

Columns and labels:
[1] = molecular target: T1, human group 1B PLA2 (hps PLA2) (Homo sapiens, UniProt P04054); experiment: Example 8 fluorimetric PLA2 inhibition assay (PPyrPM), human enzyme; type: biochemical; settings: read-out: ILYPSA IC50 hps PLA2
T1 construct: made in house; host or cells: E. coli
T1 sequence (P04054 23-148): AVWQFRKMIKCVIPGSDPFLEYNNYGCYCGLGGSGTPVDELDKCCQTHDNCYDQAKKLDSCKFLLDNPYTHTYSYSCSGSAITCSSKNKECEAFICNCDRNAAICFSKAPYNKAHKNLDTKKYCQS
Text: (§1) In this example, a fluorimetric assay procedure was used to evaluate the indole and indole-related compounds of the invention as inhibitors of group 1B phospholipase A2 (PLA2) from human, mouse and porcine. A description of this assay is found in articles: Leslie, C C and Gelb, M H (2004) Methods in Molecular Biology “Assaying phospholipase A2 activity”, 284:229-242; Singer, A G, et al. (2002) Journal of Biological Chemistry “Interfacial kinetic and binding properties of the complete set of human and mouse groups I, II, V, X, and XII secreted phospholipases A2”, 277:48535-48549, which are incorporated herein as references.
In general, this assay used a phosphatidylmethanol substrate with a pyrene fluorophore on the terminal end of the sn-2 fatty acyl chain. Without being bound by theory, close proximity of the pyrenes from neighboring phospholipids in a phospholipid vesicle caused the spectral properties to change relative to that of monomeric pyrene. Bovine serum albumin was present in the aqueous phase and captured the pyrene fatty acid when it is liberated from the glycerol backbone owing to the PLA2-catalyzed reaction. […] The effect of a given inhibitor and inhibitor concentration on human, mouse and porcine phospholipase was determined. […]
(§2) The following procedure was performed to evaluate the inhibitory potency of the evaluated compounds. • 1. […]

[2] = molecular target: T2, mouse group 1B PLA2 (mps PLA2) (Mus musculus, UniProt Q9Z0Y2); experiment: Example 8 fluorimetric PLA2 inhibition assay (PPyrPM), mouse enzyme; type: biochemical
T2 construct: made in house; host or cells: E. coli
T2 sequence (Q9Z0Y2 23-146): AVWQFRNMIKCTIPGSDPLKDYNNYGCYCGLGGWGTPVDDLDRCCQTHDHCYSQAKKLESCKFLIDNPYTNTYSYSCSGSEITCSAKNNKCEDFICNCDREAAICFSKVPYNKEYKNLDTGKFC
Text: as §1
In general, this assay used a phosphatidylmethanol substrate with a pyrene fluorophore on the terminal end of the sn-2 fatty acyl chain. Without being bound by theory, close proximity of the pyrenes from neighboring phospholipids in a phospholipid vesicle caused the spectral properties to change relative to that of monomeric pyrene. Bovine serum albumin was present in the aqueous phase and captured the pyrene fatty acid when it is liberated from the glycerol backbone owing to the PLA2-catalyzed reaction. However, a potent inhibitor can inhibit the liberation of pyrene fatty acid from the glycerol backbone. […] The effect of a given inhibitor and inhibitor concentration on human, mouse and porcine phospholipase was determined.
Recombinant human and mouse group 1B PLA2 were cloned and expressed in E. coli as insoluble inclusion bodies. The inclusion bodies were isolated and purified by sonicating cell pellet in lysis buffer (50 mM Tris-HCl pH 7.0, 250 mM NaCl, 0.5% Triton 100), centrifugation at 12,000×g, and washing three times in washing buffer (20 mM Tris-HCl pH 7.0, 250 mM NaCl, 0.5% Triton 100). […]
as §2

[3] = molecular target: T3, Porcine group 1B phospholipase A2 (pps PLA2) (Sus scrofa, UniProt P00592); experiment: Example 8 fluorimetric PLA2 inhibition assay (PPyrPM), porcine enzyme; type: biochemical; settings: read-out: ILYPSA IC50 pps PLA2
T3 construct: purchased
T3 sequence (P00592 23-146): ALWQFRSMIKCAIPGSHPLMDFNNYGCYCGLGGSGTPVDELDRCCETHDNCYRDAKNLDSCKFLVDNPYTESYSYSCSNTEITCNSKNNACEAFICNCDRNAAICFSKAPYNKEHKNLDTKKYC
Text: as §1
In general, this assay used a phosphatidylmethanol substrate with a pyrene fluorophore on the terminal end of the sn-2 fatty acyl chain. […] The effect of a given inhibitor and inhibitor concentration on human, mouse and porcine phospholipase was determined. […]
The following procedure was performed to evaluate the inhibitory potency of the evaluated compounds. • 1. […] The fluorescence was read using an excitation of 342 nm and an emission of 395 nm.
Evaluated compounds were tested in duplicate and their values were averaged to plot the inhibition curve and calculate the IC50. […] The IC50 was calculated using the BioDataFit 1.02 (Four Parameter Model) software package. […]

mouse PLA2 IB enzyme = mouse PLA2 IB enzyme (Mus musculus, UniProt Q9Z0Y2); settings: versus the mouse PLA2 IB enzyme; Singer, Ghomashchi et al. 2002; cited from earlier work
mouse PLA2 IB enzyme, sequence (Q9Z0Y2 23-146): as the sequence (Q9Z0Y2 23-146) above

[4] = predicted to survive passage through the stomach; cited from earlier work
Caco-2 cells = experiment: Example 6B Caco-2 permeability study; type: in vitro ADME, human
Procedure: The culture medium was refreshed every 48 hours.
Papp=(dQ/dt)×(1/C0)×(1/A)

[5] = tested on: C57BL/6 (wt) mice on high fat/high sucrose diabetogenic diet; experiment: Example 5 in-vivo evaluation in mice on high fat/high sucrose diabetogenic diet; set-up: species or system mouse; settings: for body weight gain compared to wild-type control group: week 4 and week 10; for plasma levels of cholesterol / plasma levels of triglycerides: 10 weeks
Procedure: ILY-4001 (FIG. 2) was evaluated as a PLA2 IB inhibitor in a set of experiments using wild-type mice and genetically deficient PLA2 (−/−) mice (also referred to herein as PLA2 knock-out (KO) mice). In these experiments, wild-type and PLA2 (−/−) mice were maintained on a high fat/high sucrose diet, details of which are described below.
Briefly, four groups were set up, each having six mice. Three of the groups included six wild-type PLA2 (+/+) mice in each group (eighteen mice total), and one of the groups included six genetically deficient PLA2 (−/−) mice. One of the wild-type groups was used as a wild-type control group, and was not treated with ILY-4001. The other two wild-type groups were treated with ILY-4001-one group at a lower dose (indicated as “L” in Table 1) of 25 mg/kg/day, and the other at a higher dose (indicated as “H” in Table 1) of 90 mg/kg/day. The group comprising the PLA2 (−/−) mice was used as a positive control group.
The experimental protocol used in this study was as follows. The four groups of mice, including wild type and isogenic PLA2 (−/−) C57BL/J mice were acclimated for three days on a low fat/low carbohydrate diet. After the three day acclimation phase, the animals were fasted overnight and serum samples taken to establish baseline plasma cholesterol, triglyceride, and glucose levels, along with baseline body weight. The mice in each of the treatment groups were then fed a high fat/high sucrose diabetogenic diet (Research Diets D12331). 1000 g of the high fat/high sucrose D12331 diet was composed of casein (228 g), DL-methionine (2 g), maltodextrin 10 (170 g), sucrose (175 g), soybean oil (25 g), hydrogenated coconut oil (333.5 g), mineral mix S10001 (40 g), sodium bicarbonate (10.5 g), potassium citrate (4 g), vitamin mix V10001 (10 g), and choline bitartrate (2 g). This diet was supplemented with ILY-4001 treatments such that the average daily dose of the compound ingested by a 25 g mouse was: 0 mg/kg/day (wild-type control group and PLA2 (−/−) control group); 25 mg/kg/day (low-dose wild-type treatment group), or 90 mg/kg/day (high-dose wild-type treatment group). The animals were maintained on the high fat/high sucrose diet, with the designated ILY-4001 supplementation, for a period of ten weeks.
Body weight measurements were taken for all animals in all treatment and control groups at the beginning of the treatment period and at 4 weeks and 10 weeks after initiation of the study. (See Example 5A). Blood draws were also taken at the beginning of the treatment period (baseline) and at 4 weeks and 10 weeks after initiation of the study, in order to determine fasting glucose (See Example 5B). Cholesterol and triglyceride levels were determined from blood draws taken at the beginning of the treatment (baseline) and at ten weeks. (See Example 5C).

human PLA2 IB enzyme = human PLA2 IB enzyme (Homo sapiens, UniProt P04054); settings: versus the human PLA2 IB enzyme; Singer, Ghomashchi et al. 2002; cited from earlier work
human PLA2 IB enzyme, sequence (P04054 23-148): as the sequence (P04054 23-148) above

[6] = Example 6C pharmokinetic study of ILY-4001 (IV and oral); type: in vivo, mice; settings: 30 mg/kg oral
Text: This example characterized ILY-4001 [2-(3-(2-amino-2-oxoacetyl)-1-(biphenyl-2-ylmethyl)-2-methyl-1H-indol-4-yloxy)acetic acid], alternatively referred to herein as methyl indoxam, with respect to activity, as determined by IC50 assay (Example 6A), with respect to cell absorbtion, as determined by in-vitro Caco-2 assay (Example 6B) and with respect to bioavailability, as determined using in-vivo mice studies (Example 6C).
This example evaluated the bioavailability of ILY-4001 [2-(3-(2-amino-2-oxoacetyl)-1-(biphenyl-2-ylmethyl)-2-methyl-1H-indol-4-yloxy)acetic acid], alternatively referred to herein as methyl indoxam. […]
Bioavailability was calculated as a ratio of AUC-oral/AUC-intravenous (IV). To determine this ratio, a first set of subject animals were given a measured intravenous (IV) dose of ILY-4001, followed by a determination of ILY-4001 levels in the blood at various time points after administration (e.g., 5 minutes through 24 hours). Another second set of animals was similarly dosed using oral administration, with blood levels of ILY-4001 determined at various time points after administration (e.g., 30 minutes through 24 hours). The level of ILY-4001 in system to circulation were determined by generally accepted methods (for example as described in Evans, G., A Handbook of Bioanalysis and Drug Metabolism. Boca Raton, CRC Press (2004)). […]

2-(3-Aminooxalyl-1-{12-[3-aminooxalyl-4-(1-carboxy-2-methyl-propoxy)-2-methyl-indol-1-yl]-dodecyl}-2-methyl-1H-indol-4-yloxy)-3-methyl-butyric acid [ILY-V-44]
IC50 [1]: 280 nM | IC50 ([2]; read-out: ILYPSA IC50 mps PLA2): 480 nM | IC50 [3]: 50 nM

Cc1c(C(=O)C(N)=O)c2c(OCC(=O)O)cccc2n1Cc1ccccc1-c1ccccc1 [ILY-4001, 2-(3-(2-amino-2-oxoacetyl)-1-(biphenyl-2-ylmethyl)-2-methyl-1H-indol-4-yloxy)acetic acid]
IC50 (mouse PLA2 IB enzyme): ~150 nM | stability at low pH [4]: stable at low pH | absorbtion from the GI lumen (Caco-2 cells; based on Caco-2 assays and pharmokinetic studies): relatively low absorbtion | body weight gain compared to wild-type control group ([5]; 25 mg/kg/d in diet): significantly reduced body weight gains | body weight gain compared to wild-type control group ([5]; 90 mg/kg/d in diet): significantly reduced body weight gains | plasma levels of cholesterol ([5]; high dose (90 mg/kg/day)): substantially reduced | plasma levels of triglycerides ([5]; high dose (90 mg/kg/day)): substantially reduced | plasma levels of cholesterol ([5]; low dose (25 mg/kg/day)): substantially reduced | plasma levels of triglycerides ([5]; low dose (25 mg/kg/day)): substantially reduced | fasting glucose levels ([5]; low dose (25 mg/kg/day), week four): moderately beneficial effect | fasting glucose levels ([5]; low dose (25 mg/kg/day), week ten): beneficial effect was not observed | IC50 (human PLA2 IB enzyme): ~200 nM | level of non-absorption from the GI tract into systemic circulation [6]: ~72%

Cc1c(C(=O)C(N)=O)c2c(OC(C(=O)O)C(C)C)cccc2n1CCCCCCCCCCCCOc1ccccc1OCCCCCCCCCCCCn1c(C)c(C(=O)C(N)=O)c2c(OC(C(=O)O)C(C)C)cccc21 (stereo not drawn) [ILY-V-33, 2-{3-Aminooxalyl-1-[12-(2-{12-[3-aminooxalyl-4-(1-carboxy-2-methyl-propoxy)-2-methyl-indol-1-yl]-dodecyloxy}-phenoxy)-dodecyl]-2-methyl-1H-indol-4-yloxy}-3-methyl-butyric acid]
IC50 [2]: 300 nM

Lucifer Yellow
apparent permeability (Caco-2 cells; 10 uM in apical wells, paracellular transport control): around 2.82×10^−7+/−0.37×10^−7 cm/s
